According to US20240016895A1, “HEPCIDIN MIMETICS FOR TREATMENT OF SICKLE CELL DISEASE” (Protagonist Therapeutics, Inc., priority 2022, published 2024):
“Also recorded” adds a separate entry of the source. Where a SMILES comes first, the peptide text is derived from it.

Columns and labels:
Format in all cases: in vivo
[1] = test system: Townes SCD mice; test: Complete blood count (hematological parameters) in Townes SCD mice treated for 4 weeks; conditions: for % Retics / Abs Retics / HCT / HGB / MCH / MCHC / MCV / RBC: 4 weeks
Method: (§1) Compound 46, a hepcidin mimetic, was administered subcutaneously at 1.0 mg/kg (group 3, N=9) or 2.5 mg/kg (group 4, N=9) in Townes SCD mice. 36 Townes SCD and 6 129S1/SvlmJ (wild-type), female mice, 5 weeks old upon delivery. A control group of wild-type mice (groups 1, N=6) was treated with vehicle as well as another SCD mice (group 2, N=9). All mice were dosed three times per week (TIW). All mice were maintained on an iron-adjusted diet (TD.140258, 35 ppm iron) throughout the study. Collections and necropsies were performed 24 hours post-last dose of compound or vehicle. After 4 weeks on study, animals from each group were euthanized, EDTA whole blood collected for CBC and serum was collected for hemolysis biomarker analysis. Spleens and livers were weighed at terminus. Liver, spleen, kidney, heart and brain were collected for future analysis. Serum and urine were collected to analyze chemistry markers, such as bilirubin, LDH (lactate dehydrogenase), haptoglobin, urine creatinine, urine total protein and urine urea nitrogen.
As shown in FIG. 4A and FIG. 4B, reticulocytes were counted both with the automated analyzer as well as manually from a new methylene blue stained blood smear by counting the number of positive stained cells encountered in 500 erythrocytes and calculating the percentage.

[2] = test system: Townes SCD mice; test: Spleen and liver weights and organ to body weight ratios at terminus in Townes SCD mice
Method: as §1, with “Compound 46, a hepcidin mimetic, was administered subcutaneously at 1.0 mg/kg (group 3, N=9) or 2.5 mg/kg (group 4, N=9) in Townes SCD mice.” left out

[3] = test system: Townes SCD mice; test: Serum RBC hemolysis biomarkers (total bilirubin, LDH) in Townes SCD mice treated for 4 weeks; conditions: for LDH / Total bilirubin: serum, 4 weeks
Method: as §1
Serum total bilirubin and serum lactate dehydrogenase are hemolysis biomarkers.

[4] = Dose 1 (mg/kg subcutaneously TIW)
[5] = Dose 2.5 (mg/kg subcutaneously TIW)

SMILES: CCCCCCCCCCCCCCCC(=O)N[C@@H](CCC(=O)NCCCC[C@@H]1NC(=O)[C@H]([C@@H](C)CC)NC(=O)[C@@H](NC(=O)[C@@H]2CCCN2C(=O)[C@H](Cc2ccccc2)NC(=O)[C@H](Cc2cnc[nH]2)NC(=O)[C@@H](NC(=O)[C@H](CCC(=O)O)NC(=O)CC(C)C)[C@@H](C)O)CSSC[C@@H](C(=O)N[C@@H](CCCCN)C(N)=O)NC(=O)CNC(=O)[C@H](CCCCN)NC(=O)[C@H](CO)NC(=O)[C@H](CCCNC(=N)N)NC(=O)[C@@H]2CCCN2C(=O)[C@H](CCC(=O)O)NC(=O)[C@H](Cc2ccccc2)NC1=O)C(=O)O [Compound 46, Isovaleric_Acid-ETHFPCI(K(IsoGlu_Palm))FEPRSKGCK-NH2] (HELM PEPTIDE1{[CC(C)CC(=O)[*:2]].E.T.H.F.P.C.I.K.F.E.P.R.S.K.G.C.K.[am]}|PEPTIDE2{[CCCCCCCCCCCCCCCC(=O)[*:2]].[gGlu]}$PEPTIDE1,PEPTIDE2,9:R3-2:R2|PEPTIDE1,PEPTIDE1,7:R3-17:R3$$$V2.0)
- RBC count ([1]; 2.5 mg/kg dose, result in words, FIG. 3A): significantly reduced
- Percent of reticulocytes compared to vehicle control ([1]; 2.5 mg/kg dose, result in words, FIG. 4B): decreased percent of reticulocytes significantly
- Mean corpuscular hemoglobin concentration (MCHC) compared to vehicle control ([1]; 2.5 mg/kg, result in words, FIG. 6B): significant increase in MCHC
- % Retics [1, 4]: 65.78 ± 12.23%
- Abs Retics [1, 4]: 2612 ± 627.9 K/uL
- HCT [1, 4]: 29.62 ± 3.45 %
- HGB [1, 4]: 5.89 ± 0.93 g/dL
- MCH [1, 4]: 9.89 ± 0.45 pg
- MCHC [1, 4]: 19.82 ± 1.65 g/dL
- MCV [1, 4]: 50.11 ± 3.41 fL
- RBC [1, 4]: 5.94 ± 0.78 M/uL
- % Retics [1, 5]: 50.33 ± 6.73 %
- Abs Retics [1, 5]: 1195 ± 246.5 K/uL
- HCT [1, 5]: 16.27 ± 7.23 %
- HGB [1, 5]: 4.39 ± 0.36 g/dL
- MCH [1, 5]: 9.82 ± 0.63 pg
- MCHC [1, 5]: 23.22 ± 3.10 g/dL
- MCV [1, 5]: 42.56 ± 3.81 fL
- RBC [1, 5]: 4.49 ± 0.55 M/uL
- Hgb level ([1]; result in words, FIG. 3B): significantly reduced in all three dose groups
- Hematocrit (HCT) ([1]; result in words, FIG. 5A): significant reduction of HCT in a dose dependent manner
- Mean corpuscular volume (MCV) compared to the vehicle group ([1]; result in words, FIG. 5B): significant reduction of MCV in a dose dependent manner
- Mean corpuscular hemoglobin (MCH) compared to vehicle control ([1]; result in words, FIG. 6A): significant reduction in MCH
- White blood cell (WBC) count ([1]; result in words, FIG. 7A): significant WBC and lymphocyte reduction in a dose dependent manner; also recorded: alleviated elevated white blood cell (WBC) and lymphocytes counts
- Lymphocyte count ([1]; result in words, FIG. 7B): significant WBC and lymphocyte reduction in a dose dependent manner; also recorded: alleviated elevated white blood cell (WBC) and lymphocytes counts
- Neutrophil count ([1]; result in words, FIG. 8A): significantly decreased neutrophil count in a dose dependent manner; also recorded: alleviated elevated neutrophil and monocyte counts
- Monocyte count ([1]; result in words, FIG. 8B): alleviated elevated neutrophil and monocyte counts
- Liver Weight ([2]; SCD mice, Dose 1): 1.290 g
- Liver:BW Ratio ([2]; SCD mice, Dose 1): 0.0633 g/g
- Spleen Weight ([2]; SCD mice, Dose 1): 1.035 g
- Spleen:BW Ratio ([2]; SCD mice, Dose 1): 0.0508 g/g
- Liver Weight ([2]; SCD mice, Dose 2.5): 1.138 g
- Liver:BW Ratio ([2]; SCD mice, Dose 2.5): 0.0573 g/g
- Spleen Weight ([2]; SCD mice, Dose 2.5): 0.725 g
- Spleen:BW Ratio ([2]; SCD mice, Dose 2.5): 0.0365 g/g
- Liver Weight ([2]; SCD mice, Dose 7.5): 0.758 g
- Liver:BW Ratio ([2]; SCD mice, Dose 7.5): 0.0549 g/g
- Spleen Weight ([2]; SCD mice, Dose 7.5): 0.301 g
- Spleen:BW Ratio ([2]; SCD mice, Dose 7.5): 0.0217 g/g
- Spleen weights compared to vehicle ([2]; SCD mice, result in words, FIG. 1A): significantly and dose-dependently lower
- Spleen to body weight ratios compared to vehicle ([2]; SCD mice, result in words, FIG. 1B): significantly and dose-dependently lower
- Liver weight compared to vehicle treated SCD mice ([2]; SCD mice, result in words, FIG. 2A): significantly lower in a dose dependent manner
- Liver to body weight ratios compared to vehicle treated SCD mice ([2]; SCD mice, result in words, FIG. 2B): significantly lower in a dose dependent manner
- Spleen size ([2]; Townes SCD mice, figure legend FIG. 1A/1B): reduces spleen size
- Liver size ([2]; Townes SCD mice, figure legend FIG. 2A/2B): reduces liver size
- Serum total bilirubin ([3]; result in words, FIG. 9A): significantly reduced both parameters in a dose dependent manner
- Serum lactate dehydrogenase (LDH) ([3]; result in words, FIG. 9B): significantly reduced both parameters in a dose dependent manner
- LDH [3, 4]: 610.6 ± 341.0 U/L
- Total bilirubin [3, 4]: 2.16 ± 0.34 mg/dL
- LDH [3, 5]: 372.3 ± 70.96 U/L
- Total bilirubin [3, 5]: 1.13 ± 0.37 mg/dL
